From patent US6284768A, “Src family SH2 domain inhibitors” (Boehringer Ingelheim Pharmaceuticals, Inc., priority 1999, dated 2001)

What follows are compounds tested against T1, p56lck GST-SH2 (lck SH2 domain) (Homo sapiens, UniProt P06239) (assay: Receptor-ligand equilibrium binding constants by surface plasmon resonance (biosensor), lck SH2 domain). Conditions: Table 1, compounds of formula (II).
T1 construct: GST (N)
Experimental: The general methods for the determination of Receptor-Ligand Kinetic and Equilibrium Binding Constants using Surface Plasmon Resonance as applied to the lck SH2 Domain have been described in: M. M. Morelock, R. H. Ingraham, R. Betageri.
General Biosensor Methods.
The mobile phase buffer, 10 mM HEPES, pH 7.4, 150 mM NaCl, and 0.05% P-20, was maintained at a flow rate of 5 μL/min in all experiments. All buffers and protein solutions were filtered through a 0.2 um filter and degassed immediately before use.
Strepavidin was diluted to 0.25 mg/ml in 20 mM NaOAc buffer, pH 4.5 and immobilized by free amine coupling to approximately 3000 RU for all 4 flow cells from a single sensor chip .
Surface Kd Determinations.
The surface was regenerated by 4μL of 20 mM HCl followed by 4 μL of 150 mM Tris base. The values used in the analysis were the equilibrium plateau values from which the sample refractive index has been subtracted. For the data analyzed for linear function the equilibrium plateau values without the sample refractive index subtracted were used. Free solution Kd determinations. In a 96 well microtiter plate 20 nM SH2 domain suspended in running buffer containing 0.2 mg/ml BSA and 1 mM DT'T was distributed in 100 μL per well. The highest concentration of compound tested was added to the last well and titrated with 2 fold dilutions for a final of 10 concentrations to be run. 25 μL of the mixture was injected over a strepavidin-biotin-ε-aminohexanoic acid-EGQpYEEIPIA surface and regenerated with 4 μL of 20 mM HCl. […], of 150 mM Tris base was injected after every 11 samples. Typically 8 assays were run in an overnight programmed run.

T1 sequence (P06239 127-224 limits assumed): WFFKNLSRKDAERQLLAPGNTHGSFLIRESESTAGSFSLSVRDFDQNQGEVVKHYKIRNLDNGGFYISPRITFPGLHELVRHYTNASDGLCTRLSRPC

| Structure (SMILES) | Kd |
| --- | --- |
| COc1ccc(Cn2ccc(C)c(NC(=O)[C@H](Cc3ccc(NC(=O)C(=O)O)cc3)NC(=O)CN3CCc4ccccc4C3)c2=O)cc1 [Compound 29] | 1200 nM |
| Cc1ccn(Cc2ccc(O)cc2)c(=O)c1NC(=O)[C@H](Cc1ccc(C(C)(C)C(=O)O)cc1)NC(=O)C(C)(C)c1cccc2ccccc12 [Compound 134] | 5700 nM |
| Cc1ccn(C/C=C/c2ccccc2)c(=O)c1NC(=O)C(Cc1ccc(C(C)(C)C(=O)O)cc1)NC(=O)Cc1ccc2ccccc2c1 (racemic) [Compound 115] | 1200 nM |
| COc1ccc(Cn2ccc(C)c(NC(=O)[C@H](Cc3ccc(NC(=O)C(=O)O)cc3)NC(=O)Cc3cccc(Br)c3)c2=O)cc1 [Compound 37] | 650 nM |
| CCCCCCn1cc(C(=O)OC)c(C)c(NC(=O)C(Cc2ccc(C(C)(C)C(=O)O)cc2)NC(=O)C(C)(C)c2ccc3ccccc3c2)c1=O (stereo not drawn) [Compound 121] | 2700 nM |
| COc1ccc(Cn2ccc(C)c(NC(=O)[C@H](Cc3ccc(CC(=O)O)cc3)NC(=O)C3(c4ccccc4)CCCC3)c2=O)cc1 [Compound 78] | 13000 nM |
| COc1ccc(Cn2ccc(C)c(NC(=O)[C@H](Cc3ccc(NC(=O)C(=O)O)cc3)NC(=O)Cc3ccccc3Br)c2=O)cc1 [Compound 38] | 3200 nM |
| COc1ccc(Cn2ccc(C)c(NC(=O)[C@H](Cc3ccc(N(O)C(=O)C(=O)O)cc3)NC(=O)Cc3ccc(N(C)C)cc3)c2=O)cc1 [Compound 26] | 4300 nM |
| COc1ccc(Cn2ccc(C)c(NC(=O)[C@H](Cc3ccc(CC(=O)O)cc3)NC(=O)C3(c4ccccc4)CCOCC3)c2=O)cc1 [Compound 80] | 20000 nM |
| COc1ccc(Cn2ccc(C)c(NC(=O)[C@H](Cc3ccc(NC(=O)C(=O)O)cc3)NC(=O)Cc3csc(-c4cnccn4)n3)c2=O)cc1 [Compound 17] | 3400 nM |
| COc1ccc(Cn2cc(Br)c(C)c(NC(=O)[C@H](Cc3ccc(C(C)(C)C(=O)O)cc3)NC(=O)C(C)(C)c3ccc4ccccc4c3)c2=O)cc1 [Compound 233] | 420 nM |
| COc1ccc(Cn2ccc(C)c(NC(=O)[C@H](Cc3ccc(C(F)(F)P(=O)(O)O)cc3)NC(C)=O)c2=O)cc1 [Compound 65] | 1300 nM |
| COc1ccc(Cn2cc(I)c(C)c(NC(=O)C(Cc3ccc(C(C)(C)C(=O)O)cc3)NC(=O)Cc3ccc4ccccc4c3)c2=O)cc1 (racemic) [Compound 229, 3-[2'-(R,S)-(2""-Naphthylacetyl)amino-3'4"-(1'"-carboxy-1'"-methyl)ethyl]benzene]propanoylamino-5-iodo-1-(4-methoxybenzyl)-4-methyl-2-pyridone] | 140 nM |
| COc1ccc(Cn2cc(/C=C/C(N)=O)c(C)c(NC(=O)C(Cc3ccc(C(C)(C)C(=O)O)cc3)NC(=O)Cc3ccc4ccccc4c3)c2=O)cc1 (racemic) [Compound 221, 3-[2'-(R,S)-(2""-Naphthylacetyl)amino-3'-[4"-(1'"-carboxy-1'"-methyl)ethyl]benzene]propanoylamino-5-acrylamido-1-(4-methoxybenzyl)-4-methyl-2-pyridone] | 170 nM |
| Cc1ccn(CC2CCCCC2)c(=O)c1NC(=O)[C@H](Cc1ccc(CC(=O)O)cc1)NC(=O)C(C)(C)C [Compound 67] | 64000 nM |
| COc1ccc(Cn2ccc(C)c(NC(=O)[C@H](Cc3ccc(NC(=O)C(=O)O)cc3)NC(=O)Cc3ccc(-n4c(C)ccc4C)cc3)c2=O)cc1 [Compound 39] | 2300 nM |
| COc1ccc(Cn2ccc(C)c(NC(=O)[C@H](Cc3ccc(NC(=O)C(=O)O)cc3)NC(=O)Cc3c(C)[nH]c4ccccc34)c2=O)cc1 [Compound 28] | 1100 nM |
| COc1ccc(Cn2ccc(C)c(NC(=O)[C@H](Cc3ccc(C(C)(C)C(=O)O)cc3)NC(=O)Cc3ccc(N(C)C)cc3)c2=O)cc1 [Compound 99] | 130 nM |
| COc1ccc(C(C)n2ccc(C)c(NC(=O)[C@H](Cc3ccc(CC(=O)O)cc3)NC(C)=O)c2=O)cc1 (stereo partly drawn) [Compound 81] | 23000 nM |
| COc1ccc(Cn2ccc(C)c(NC(=O)[C@H](Cc3ccc(C(C)(C)C(=O)O)cc3)NC(=O)Cc3ccccc3C)c2=O)cc1 [Compound 113] | 870 nM |

Same assay, conditions: Table 2, compounds of formula (III)

| Structure (SMILES) | Kd |
| --- | --- |
| COc1ccc(Cn2nc(C)c(C)c(NC(=O)[C@H](Cc3ccc(CC(=O)O)cc3)NC(=O)Cc3cccc4ccccc34)c2=O)cc1 [Compound 244] | 6000 nM |
